± gives the uncertainty stated by the source.
Assay: xn = mol fraction of the nth substance listed

CCOCCO + Cc1cccc(C)c1
viscosity [mPa·s], 101 kPa
Details | 298.15 K | 308.15 K
x1 = 0.0531 | 0.608 ± 0.011 | 0.521 ± 0.01
x1 = 0.1513 | 0.663 ± 0.012 | 0.566 ± 0.01
x1 = 0.2482 | 0.727 ± 0.013 | 0.618 ± 0.011
x1 = 0.3528 | 0.809 ± 0.014 | 0.682 ± 0.012
x1 = 0.4512 | 0.9 ± 0.015 | 0.752 ± 0.013
x1 = 0.5053 | 0.957 ± 0.016 | 0.795 ± 0.014
x1 = 0.5473 | 1.006 ± 0.017 | 0.831 ± 0.014
x1 = 0.6494 | 1.14 ± 0.019 | 0.928 ± 0.016
x1 = 0.751 | 1.3 ± 0.021 | 1.04 ± 0.018
x1 = 0.8492 | 1.487 ± 0.024 | 1.168 ± 0.02
x1 = 0.9554 | 1.731 ± 0.028 | 1.33 ± 0.022

CC(CC(C)(C)C)CP(=O)(O)CC(C)CC(C)(C)C (stereo not given) + Cc1ccccc1
298.15 K, 101 kPa
Details | viscosity [mPa·s]
x1 = 0.0069 | 0.589 ± 0.007
x1 = 0.0129 | 0.633 ± 0.008
x1 = 0.0143 | 0.65 ± 0.008
x2 = 0.1117 | 88.23 ± 1.3
x2 = 0.2037 | 66.68 ± 0.82
x2 = 0.3198 | 43.9 ± 0.52
x2 = 0.4972 | 20.43 ± 0.24
x2 = 0.6533 | 9.197 ± 0.11
x2 = 0.7579 | 4.844 ± 0.057
x2 = 0.7674 | 4.562 ± 0.054
x2 = 0.8571 | 2.218 ± 0.026
x2 = 0.8649 | 2.075 ± 0.024
x2 = 0.9241 | 1.252 ± 0.015
x2 = 0.9269 | 1.219 ± 0.014
x2 = 0.9692 | 0.778 ± 0.009

CCOCCO + Cc1ccccc1
viscosity [mPa·s], 101 kPa
Details | 298.15 K | 308.15 K
x1 = 0.056 | 0.576 ± 0.011 | 0.517 ± 0.01
x1 = 0.1494 | 0.627 ± 0.011 | 0.554 ± 0.01
x1 = 0.2493 | 0.69 ± 0.012 | 0.601 ± 0.011
x1 = 0.3539 | 0.771 ± 0.013 | 0.66 ± 0.012
x1 = 0.449 | 0.859 ± 0.015 | 0.723 ± 0.013
x1 = 0.5019 | 0.915 ± 0.015 | 0.763 ± 0.013
x1 = 0.5488 | 0.969 ± 0.016 | 0.802 ± 0.014
x1 = 0.6514 | 1.107 ± 0.018 | 0.899 ± 0.015
x1 = 0.7465 | 1.261 ± 0.021 | 1.007 ± 0.017
x1 = 0.8514 | 1.468 ± 0.024 | 1.149 ± 0.019
x1 = 0.9527 | 1.716 ± 0.027 | 1.317 ± 0.022

CNC(C)=O + Cc1ccccc1
308.15 K, 101.33 kPa
Details | viscosity [mPa·s]
x1 = 0.0366 | 0.4848 ± 0.0047
x1 = 0.1983 | 0.7283 ± 0.0067
x1 = 0.3436 | 1.012 ± 0.0092
x1 = 0.4518 | 1.26 ± 0.011
x1 = 0.5799 | 1.582 ± 0.015
x1 = 0.6965 | 1.936 ± 0.018
x1 = 0.7868 | 2.28 ± 0.022
x1 = 0.8882 | 2.718 ± 0.026
x2 = 0.0175 | 3.188 ± 0.032

CCOCCO + Cc1ccccc1C
viscosity [mPa·s], 101 kPa
Details | 298.15 K | 308.15 K
x1 = 0.0533 | 0.777 ± 0.014 | 0.674 ± 0.012
x1 = 0.1508 | 0.817 ± 0.014 | 0.708 ± 0.013
x1 = 0.2502 | 0.867 ± 0.015 | 0.75 ± 0.013
x1 = 0.3516 | 0.931 ± 0.016 | 0.8 ± 0.014
x1 = 0.4528 | 1.009 ± 0.017 | 0.858 ± 0.015
x1 = 0.5042 | 1.056 ± 0.017 | 0.892 ± 0.015
x1 = 0.553 | 1.104 ± 0.018 | 0.926 ± 0.016
x1 = 0.6472 | 1.211 ± 0.02 | 1.001 ± 0.017
x1 = 0.7494 | 1.353 ± 0.022 | 1.096 ± 0.018
x1 = 0.8486 | 1.52 ± 0.024 | 1.204 ± 0.02
x1 = 0.954 | 1.739 ± 0.028 | 1.34 ± 0.022

CC(CC(C)(C)C)CP(=O)(O)CC(C)CC(C)(C)C (stereo not given) + ClC(Cl)(Cl)Cl
298.15 K, 101 kPa
Details | viscosity [mPa·s]
x1 = 0.0063 | 0.961 ± 0.011
x1 = 0.0131 | 1.04 ± 0.012
x1 = 0.0159 | 1.076 ± 0.012
x2 = 0.1192 | 98.3 ± 1.5
x2 = 0.201 | 83.19 ± 1.1
x2 = 0.3155 | 66.36 ± 0.79
x2 = 0.5037 | 36.06 ± 0.41
x2 = 0.6763 | 19.27 ± 0.21
x2 = 0.7689 | 12.88 ± 0.14
x2 = 0.7808 | 11.73 ± 0.13
x2 = 0.8099 | 9.498 ± 0.11
x2 = 0.86 | 5.932 ± 0.067
x2 = 0.8741 | 4.951 ± 0.056
x2 = 0.9286 | 2.263 ± 0.026
x2 = 0.9325 | 2.124 ± 0.024
x2 = 0.9717 | 1.255 ± 0.014

CCCCCCCCBr + ClC(Cl)(Cl)Cl
101 kPa
Details | viscosity [mPa·s]
293.15 K, x1 = 0.0483 | 0.9339 ± 0.038
293.15 K, x1 = 0.0969 | 0.9701 ± 0.04
293.15 K, x1 = 0.1945 | 1.037 ± 0.042
293.15 K, x1 = 0.3916 | 1.173 ± 0.048
293.15 K, x1 = 0.5916 | 1.295 ± 0.053
293.15 K, x1 = 0.7943 | 1.404 ± 0.057
303.55 K, x1 = 0.0608 | 0.87 ± 0.036
303.55 K, x1 = 0.0978 | 0.893 ± 0.036
303.55 K, x1 = 0.1964 | 0.955 ± 0.039
303.55 K, x1 = 0.3775 | 1.08 ± 0.044
303.55 K, x1 = 0.5801 | 1.18 ± 0.048
303.55 K, x1 = 0.8407 | 1.307 ± 0.053
313.65 K, x1 = 0.0482 | 0.7513 ± 0.031
313.65 K, x1 = 0.0973 | 0.7763 ± 0.032
313.65 K, x1 = 0.1952 | 0.8276 ± 0.034
313.65 K, x1 = 0.3945 | 0.9359 ± 0.038
313.65 K, x1 = 0.5771 | 1.022 ± 0.042
313.65 K, x1 = 0.7616 | 1.097 ± 0.045

CCOCCO + ClC(Cl)(Cl)Cl
viscosity [mPa·s], 100 kPa
Details | x2 = 0.0977 | x2 = 0.1959 | x2 = 0.2946 | x2 = 0.3938 | x2 = 0.4935 | x2 = 0.5937 | x2 = 0.6945 | x2 = 0.7958 | x2 = 0.8976
298.15 K | 1.784 ± 0.016 | 1.657 ± 0.015 | 1.539 ± 0.014 | 1.428 ± 0.013 | 1.325 ± 0.012 | 1.229 ± 0.011 | 1.14 ± 0.011 | 1.056 ± 0.0099 | 0.9785 ± 0.0092
303.15 K | 1.572 ± 0.014 | 1.47 ± 0.013 | 1.373 ± 0.013 | 1.283 ± 0.012 | 1.197 ± 0.011 | 1.118 ± 0.01 | 1.043 ± 0.0098 | 0.9725 ± 0.0092 | 0.9067 ± 0.0086
308.15 K | 1.391 ± 0.013 | 1.308 ± 0.012 | 1.23 ± 0.011 | 1.155 ± 0.011 | 1.085 ± 0.01 | 1.019 ± 0.0096 | 0.9566 ± 0.009 | 0.8976 ± 0.0085 | 0.8421 ± 0.0081
313.15 K | 1.236 ± 0.011 | 1.168 ± 0.011 | 1.105 ± 0.01 | 1.044 ± 0.0098 | 0.9864 ± 0.0093 | 0.9318 ± 0.0088 | 0.8798 ± 0.0084 | 0.8306 ± 0.008 | 0.7838 ± 0.0076
